Source: US9474702B2, “Cosmetic use of salicylic acid derivatives” (Avon Products, Inc., priority 2013, dated 2016)

Biological target: T1, recombinant human (rh) KLK5 protease (Homo sapiens, UniProt Q9Y337)
T1 construct: purchased R&D Systems 1108-SE
T1 sequence (Q9Y337 23-293): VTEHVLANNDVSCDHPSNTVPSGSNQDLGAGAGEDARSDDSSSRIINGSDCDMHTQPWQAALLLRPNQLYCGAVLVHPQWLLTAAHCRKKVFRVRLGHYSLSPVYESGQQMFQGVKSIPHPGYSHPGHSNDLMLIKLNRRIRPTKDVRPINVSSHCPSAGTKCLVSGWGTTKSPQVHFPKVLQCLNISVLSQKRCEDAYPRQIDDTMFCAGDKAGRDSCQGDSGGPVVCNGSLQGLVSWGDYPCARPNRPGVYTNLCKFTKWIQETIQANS
Assay: Enzymatic activity of Kallikrein 5 (KLK5), fluorogenic peptide substrate Boc-V-P-R-AMC
Type: biochemical
Experimental: The compound of Formula 1a was assayed for enzymatic activity of Kallikrein 5 (KLK5) as follows, and its activity compared to that of salicylic acid. The KLK5 activity of the compound of Formula 1a was calculated as a percentage of KLK5 activity relative to salicylic acid.
In the stratum corneum, skin's outermost layer, cell-to-cell cohesion depends primarily on proteins known as the corneodesmosomes. During skin remodeling and renewal dead cells are shed from the skin surface by the action of native proteases that break down the corneodesmosomes. […] To this end, the enzymatic activity of a member of the KLK family, recombinant human (rh) KLK5, was monitored following pre-incubation with actives and measuring the rate of peptide bond cleavage of a synthetic substrate.
Enzymatic activity of KLK5 was measured by incubating recombinant human (rh) KLK5 protease (R&D Systems, Cat No. 1108-SE) with a specific fluorogenic peptide substrate Boc-V-P-R-AMC (R&D Systems, Cat No. ES011). […] Increase in fluorescence reading indicates an increase in rhKLK5 activity. […] After 60 seconds of incubation, fluorescence was measured at 340 nm (Excitation wavelength) and 485 nm (Emission wavelength) every 1 minute for 7 minutes. Rate (kinetics) of enzyme activity was calculated as follows: Rate of enzyme activity=Change of fluorescent reading (after background correction)/Change of reaction time (min). […]

With O=C(Oc1ccccc1C(=O)O)c1ccccc1O [compound of Formula 1a] the “KLK5 activity as a percentage relative to salicylic acid (stimulator effect)” value (relative to salicylic acid, dimer tested at a concentration approximately half of that of salicylic acid, difference not significant) was “about 90%” and the “KLK5 stimulation (in words)” value (rhKLK5 enzymatic activity) was “potent stimulator of KLK5”.
